The supplement of paper PMC11061612

Columns and labels:
SN-38 = compound: CCc1c2c(nc3ccc(O)cc13)-c1cc3c(c(=O)n1C2)COC(=O)[C@]3(O)CC [SN-38]; conditions: max 0.3 µM
How it was run: (§1)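 In 1536-well plates, cancer cell lines in 7.5 μl DMEM/F12 or RPMI with 10% FBS spent 24 hours at 37°C and 5% CO2 and were then dosed for 72 hours with final DMSO typically 0.2%. Viability was read by CellTiter-Glo 2.0 luminescence and scaled between blank-well and DMSO-well means. The single-agent IC50 was fitted from dose responses using a logistic curve in a non-linear mixed effects model, and that logistic curve had two parameters.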

AZD8186 = compound: C[C@@H](Nc1cc(F)cc(F)c1)c1cc(C(=O)N(C)C)cc2c(=O)cc(N3CCOCC3)oc12 [AZD8186]; conditions: max 10 µM
How it was run: as §1

AZD1775 = compound: C=CCn1c(=O)c2cnc(Nc3ccc(N4CCN(C)CC4)cc3)nc2n1-c1cccc(C(C)(C)O)n1 [AZD1775]; conditions: max 3 µM
How it was run: as §1

AZD5991 = compound: Cc1c2c(nn1C)CSCc1cc(n(C)n1)CSc1cc(c3ccccc3c1)OCCCc1c(C(=O)O)n(C)c3c-2c(Cl)ccc13 [AZD5991]; conditions: max 1 µM
How it was run: as §1

AZD7648 = compound: Cc1cc2ncnn2cc1Nc1ncc2c(n1)n(C1CCOCC1)c(=O)n2C [AZD7648]; conditions: max 10 µM
How it was run: as §1

Prexasertib = compound: COc1cccc(OCCCN)c1-c1cc(Nc2cnc(C#N)cn2)n[nH]1 [Prexasertib]; conditions: max 1 µM
How it was run: as §1

AZD5153 = compound: COc1nnc2ccc(N3CCC(c4ccc(OCCN5CCN(C)C(=O)[C@H]5C)cc4)CC3)nn12 [AZD5153]; conditions: max 1 µM
How it was run: as §1

Olaparib = compound: O=C(c1cc(Cc2n[nH]c(=O)c3ccccc23)ccc1F)N1CCN(C(=O)C2CC2)CC1 [Olaparib]; conditions: max 10 µM
How it was run: as §1

Carboplatin = compound: C1CC(C1)(C(=O)[O-])C(=O)[O-].N.N.[Pt+2] [Carboplatin]; conditions: max 10 µM
How it was run: as §1

AZD6738 = compound: C[C@@H]1COCCN1C2=NC(=NC(=C2)C3(CC3)[S@](=N)(=O)C)C4=C5C=CNC5=NC=C4 [AZD6738]; conditions: max 10 µM
How it was run: as §1

AZD1390 = compound: CC(C)n1c(=O)n(C)c2cnc3cc(F)c(-c4ccc(OCCCN5CCCCC5)nc4)cc3c21 [AZD1390]; conditions: max 0.3 µM
How it was run: as §1

Palbociclib = compound: CC(=O)c1c(C)c2cnc(Nc3ccc(N4CCNCC4)cn3)nc2n(C2CCCC2)c1=O [Palbociclib]; conditions: max 10 µM
How it was run: as §1

Alisertib = compound: COc1cc(Nc2ncc3c(n2)-c2ccc(Cl)cc2C(c2c(F)cccc2OC)=NC3)ccc1C(=O)O [Alisertib]; conditions: max 10 µM
How it was run: as §1

Doxorubicin = compound: COc1cccc2c1C(=O)c1c(O)c3c(c(O)c1C2=O)C[C@@](O)(C(=O)CO)C[C@@H]3O[C@H]1C[C@H](N)[C@H](O)[C@H](C)O1 [Doxorubicin]; conditions: max 1 µM
How it was run: as §1

Paclitaxel = compound: CC(=O)O[C@H]1C(=O)[C@@]2(C)[C@H]([C@H](OC(=O)c3ccccc3)[C@]3(O)C[C@H](OC(=O)[C@H](O)[C@@H](NC(=O)c4ccccc4)c4ccccc4)C(C)=C1C3(C)C)[C@]1(OC(C)=O)CO[C@@H]1C[C@@H]2O [Paclitaxel]; conditions: max 3 µM
How it was run: as §1

AZD0156 = compound: CN(C)CCCOc1ccc(-c2ccc3ncc4c(c3c2)n(C2CCOCC2)c(=O)n4C)cn1 [AZD0156]; conditions: max 3 µM
How it was run: as §1

AZD4320 = compound: CN(CC[C@H](CSC1=CC=CC=C1)NC2=C(C=C(C=C2)S(=O)(=O)NC(=O)C3=CC=C(C=C3)N4CCC(CC4)[C@H](C5=CC=CC=C5C6=CC=C(C=C6)Cl)O)S(=O)(=O)C(F)(F)F)CCO [AZD4320]; conditions: max 1 µM
How it was run: as §1

Etoposide = compound: COc1cc([C@@H]2c3cc4c(cc3[C@@H](O[C@@H]3O[C@@H]5CO[C@@H](C)O[C@H]5[C@H](O)[C@H]3O)[C@H]3COC(=O)[C@H]23)OCO4)cc(OC)c1O [Etoposide]; conditions: max 10 µM
How it was run: as §1

SRA737 = compound: N#Cc1cnc(Nc2cc(NC[C@H]3CNCCO3)c(C(F)(F)F)cn2)cn1 [SRA737]; conditions: max 10 µM
How it was run: as §1

Dasatinib = compound: CC1=C(C(=CC=C1)Cl)NC(=O)C2=CN=C(S2)NC3=CC(=NC(=N3)C)N4CCN(CC4)CCO [Dasatinib]; conditions: max 2 µM
How it was run: as §1

Taselisib = compound: Cc1nc(-c2cn3c(n2)-c2ccc(-c4cnn(C(C)(C)C(N)=O)c4)cc2OCC3)n(C(C)C)n1 [Taselisib]; conditions: max 10 µM
How it was run: as §1

5-Fluorouracil = compound: O=c1[nH]cc(F)c(=O)[nH]1 [5-Fluorouracil]; conditions: max 20 µM
How it was run: as §1

Crizotinib = compound: C[C@@H](Oc1cc(-c2cnn(C3CCNCC3)c2)cnc1N)c1c(Cl)ccc(F)c1Cl [Crizotinib]; conditions: max 10 µM
How it was run: as §1

MK-2206 = compound: NC1(c2ccc(-c3nc4ccn5c(=O)[nH]nc5c4cc3-c3ccccc3)cc2)CCC1 [MK-2206]; conditions: max 10 µM
How it was run: as §1

Gemcitabine = compound: Nc1ccn([C@@H]2O[C@H](CO)[C@@H](O)C2(F)F)c(=O)n1 [Gemcitabine]; conditions: max 0.3 µM
How it was run: as §1

Venetoclax = compound: CC1(C)CCC(CN2CCN(c3ccc(C(=O)NS(=O)(=O)c4ccc(NCC5CCOCC5)c([N+](=O)[O-])c4)c(Oc4cnc5[nH]ccc5c4)c3)CC2)=C(c2ccc(Cl)cc2)C1 [Venetoclax]; conditions: max 1 µM
How it was run: as §1

[1] = compound: O=C(Nc1ccc2[nH]nc(-c3ccncc3)c2c1)[C@@H]1CCN(CC(=O)N2CCN(c3ccc(-c4ncccn4)cc3)CC2)C1; conditions: max 5 µM
How it was run: as §1

AZD5363 = compound: C1CN(CCC1(C(=O)N[C@@H](CCO)C2=CC=C(C=C2)Cl)N)C3=NC=NC4=C3C=CN4 [AZD5363]; conditions: max 10 µM
How it was run: as §1

Savolitinib = compound: C[C@@H](c1ccc2nccn2c1)n1nnc2ncc(-c3cnn(C)c3)nc21 [Savolitinib]; conditions: max 1 µM
How it was run: as §1

Lapatinib = compound: CS(=O)(=O)CCNCc1ccc(-c2ccc3ncnc(Nc4ccc(OCc5cccc(F)c5)c(Cl)c4)c3c2)o1 [Lapatinib]; conditions: max 10 µM
How it was run: as §1

Selumetinib = compound: Cn1cnc2c(F)c(Nc3ccc(Br)cc3Cl)c(C(=O)NOCCO)cc21 [Selumetinib]; conditions: max 10 µM
How it was run: as §1

Gefitinib = compound: COc1cc2ncnc(Nc3ccc(F)c(Cl)c3)c2cc1OCCCN1CCOCC1 [Gefitinib]; conditions: max 10 µM
How it was run: as §1

Trametinib = compound: CC(=O)Nc1cccc(-n2c(=O)n(C3CC3)c(=O)c3c(Nc4ccc(I)cc4F)n(C)c(=O)c(C)c32)c1 [Trametinib]; conditions: max 1 µM
How it was run: as §1

SG3199 = compound: CC1=CN2[C@@H](C1)C=NC3=CC(=C(C=C3C2=O)OC)OCCCCCOC4=C(C=C5C(=C4)N=C[C@@H]6CC(=CN6C5=O)C)OC [SG3199]; conditions: max 0.001 µM
How it was run: as §1

AZD2811 = compound: CCN(CCO)CCCOc1ccc2c(Nc3cc(CC(=O)Nc4cccc(F)c4)[nH]n3)ncnc2c1 [AZD2811]; conditions: max 1 µM
How it was run: as §1

Cell Line | IC50, cell viability 72 h (SN-38) [nM] | IC50, cell viability 72 h (AZD8186) [nM] | IC50, cell viability 72 h (AZD1775) [nM] | IC50, cell viability 72 h (AZD5991) [nM] | IC50, cell viability 72 h (AZD7648) [nM] | IC50, cell viability 72 h (Prexasertib) [nM] | IC50, cell viability 72 h (AZD5153) [nM] | IC50, cell viability 72 h (Olaparib) [nM] | IC50, cell viability 72 h (Carboplatin) [nM] | IC50, cell viability 72 h (AZD6738) [nM] | IC50, cell viability 72 h (AZD1390) [nM] | IC50, cell viability 72 h (Palbociclib) [nM] | IC50, cell viability 72 h (Alisertib) [nM] | IC50, cell viability 72 h (Doxorubicin) [nM] | IC50, cell viability 72 h (Paclitaxel) [nM] | IC50, cell viability 72 h (AZD0156) [nM] | IC50, cell viability 72 h (AZD4320) [nM] | IC50, cell viability 72 h (Etoposide) [nM] | IC50, cell viability 72 h (SRA737) [nM] | IC50, cell viability 72 h (Dasatinib) [nM] | IC50, cell viability 72 h (Taselisib) [nM] | IC50, cell viability 72 h (5-Fluorouracil) [nM] | IC50, cell viability 72 h (Crizotinib) [nM] | IC50, cell viability 72 h (MK-2206) [nM] | IC50, cell viability 72 h (Gemcitabine) [nM] | IC50, cell viability 72 h (Venetoclax) [nM] | IC50, cell viability 72 h [1] [nM] | IC50, cell viability 72 h (AZD5363) [nM] | IC50, cell viability 72 h (Savolitinib) [nM] | IC50, cell viability 72 h (Lapatinib) [nM] | IC50, cell viability 72 h (Selumetinib) [nM] | IC50, cell viability 72 h (Gefitinib) [nM] | IC50, cell viability 72 h (Trametinib) [nM] | IC50, cell viability 72 h (SG3199) [nM] | IC50, cell viability 72 h (AZD2811) [nM]
SW1417 (Colorectal Carcinoma) | 182 | > 10000 | > 3000 | > 1000 | > 10000 | 567 | > 1000 | > 10000 | > 10000 | > 10000 | > 300 | > 10000 | > 10000 | > 1000 | 422 | > 3000 | > 1000 | > 10000 | > 10000 | > 2000 | > 10000 | > 20000 | > 10000 | > 10000 | > 300 | > 1000 | 1350 | > 10000 | > 1000 | > 10000 | 4870 | > 10000 | 51.5 | > 1 | > 1000
ES8 (Ewing's Sarcoma) | 1.41 | > 10000 | 522 | > 1000 | > 10000 | 41.7 | 165 | 3250 | > 10000 | 3460 | > 300 | 9500 | 16.2 | 79.8 | < 3 | > 3000 | > 1000 | 358 | > 10000 | > 2000 | 800 | > 20000 | 1470 | 5790 | 5.64 | > 1000 | > 5000 | 8220 | > 1000 | > 10000 | > 10000 | > 10000 | > 1000 | > 1 | 5.8
